{
  "source": "paper PMC3468400",
  "about": "“Pharmacokinetic profiles of artesunate following multiple intravenous doses of 2, 4, and 8 mg/kg in healthy volunteers: Phase 1b study” (Malaria Journal, 2012)",
  "key": {"[1]": {"assay": "Tolerability and safety of multiple intravenous AS doses in healthy volunteers", "format": "in vivo, human", "experimental": "The study was a double blind, ascending multiple doses, alternating group, safety, tolerance, and PK study. Injectable AS daily for three days was administered intravenously to three groups of the subjects using alternating doses of 2, 4, and 8 mg. All eight subjects in each dose group received either the AS (six subjects) or placebo (two subjects) in a pre-randomized manner. The study physician, after verifying the code with a study nurse, would then inject either the drug or placebo into an injection port at the pre-measured dose over about 2 min as a short-term intravenous infusion; the study nurse recorded the time of study drug reconstitution, infusion start and completion of injection. When the injection was completed, the study nurse recorded tolerance of injection to include both inspection of site and subjects’ responses. Subjects were provided a light lunch at approximately 4 hours after dosing. Normal activities, excluding strenuous exercise, were permitted four hours after dosing. […] During the multiple-dose period, samples were collected immediately before morning dose on days 2 and 3 for additional trough values. All the samples were stored at −80 °C until shipment and were then shipped to a bio-analytical GLP laboratory, Midwest Research Institute (MRI), in Kansas City, MO, USA. The human use protocol numbers for the Phase 1 trial are: USUHS #G183RW; WRIAR #1128; and HSRRB #A-13276."}, "[2]": {"tested_on": "severe falciparum malaria", "settings": "SEAQUAMAT, cited from earlier work"}, "[3]": {"tested_on": "parasitaemia", "settings": "cited from earlier work"}, "[4]": {"settings": "human, in vivo, cited from earlier work"}, "[5]": {"settings": "human, in vivo, po; cited from earlier work"}, "[6]": {"tested_on": "severe falciparum malaria", "settings": "AQUAMAT, cited from earlier work"}, "[7]": {"settings": "2, 4, 8 mg/kg iv daily for three days"}, "[8]": {"settings": "severe malaria patients, intravenous treatment"}},
  "note": "Read-outs that look alike come from different tables or passages of the source.",
  "data": [
    {"smiles": "C[C@H]1[C@H](OC(=O)CCC(=O)O)O[C@@H]2O[C@@]3(C)CC[C@H]4[C@H](C)CC[C@@H]1[C@@]24OO3", "note": "[AS, 4-(10’dihydro-artemisinin-oxymethyl) succinate]", "values": [
      {"measurement": "dose dependence of adverse events", "setting": "[1]; [7]", "value": "no dose-dependent increases in any adverse events"},
      {"measurement": "haemodynamic or ECG effects", "setting": "[1]; [7]", "value": "No deleterious haemodynamic or ECG effects were seen"},
      {"measurement": "other laboratory abnormalities", "setting": "[1]; [7]", "value": "no other clinically significant laboratory abnormalities detected"},
      {"measurement": "duration of transient sensation of altered or unusual taste", "setting": "[1]; associated with higher doses of AS, all cases", "value": "less than 30 minutes"},
      {"measurement": "tolerability", "setting": "[1]; daily iv for three days, doses up to 8 mg/kg, healthy volunteers", "value": "well tolerated and no serious side effects were observed and safe"},
      {"measurement": "reticulocyte count", "setting": "[1]; peaked four days after dosing, returned to normal by study day 7 in most cases, day 10 in all", "value": "dose-related decrease"},
      {"measurement": "mortality rate", "setting": "[2]; [8]", "value": 15, "unit": "%"},
      {"measurement": "reduction of mortality versus quinine", "setting": "[2]", "value": 35, "unit": "%"},
      {"measurement": "mean time for clearance of half the parasitaemia (PC50)", "setting": "[3]; human, in vivo", "value": 3.18, "unit": "h"},
      {"measurement": "duration of the lag phase of the parasitaemia curve", "setting": "[3]; intravenous AS, previous clinical trials", "value": 1.92, "unit": "h"},
      {"measurement": "lag time of the parasitaemia curve", "setting": "[3]; oral AS, previous clinical trials", "value": 2.81, "unit": "h"},
      {"measurement": "mean peak level (Cmax)", "setting": "[4]; iv", "value": "11,343 ng/ml"},
      {"measurement": "Cmax", "setting": "[4]; po", "value": 1052, "unit": "ng/mL"},
      {"measurement": "Cmax and AUC on the last dose day as compared to the first day", "setting": "[5]", "value": "about one-third to one-seventh"},
      {"measurement": "mortality rate", "setting": "[6]; [8]", "value": 8.5, "unit": "%"},
      {"measurement": "reduction of mortality versus quinine", "setting": "[6]", "value": 22.5, "unit": "%"}
    ]}
  ]
}
